# In patent US7595401B2, “Therapeutic compounds and their use in cancer” (Myriad Pharmaceuticals, Inc., priority 2006, dated 2009):
# Test system: purified human Hsp90
# Experiment: Binding Assay: fluorescence polarization with BODIPY-labeled geldanamycin
# Details: 5 μM compound, BODIPY-GM 10 nM, Hsp90 30 nM
# Method in brief: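 Fluorescence polarization competition with BODIPY-geldanamycin (10 nM final) and human Hsp90 (30 nM final) in HEPES-KOH pH 7.3 buffer with molybdate, NP-40, DTT; 2% DMSO, overnight at room temperature. Read 485/530 nm; percent inhibition from mP normalized to DMSO controls, fluorescent-compound points excluded.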
row,SMILES,% Inhibition at 5 μM Compound Concentration [%]
1,"Nc1ncn(Cc2ccccc2)c2nc(Sc3cc4c(cc3Br)OCO4)nc1-2 [Example 265, 3-Benzyl-8-[(6-bromo-1,3-benzodioxol-5-yl)thio]-3H-purin-6-amine]",20
2,"Nc1ncn(CCc2ccccc2)c2nc(Sc3ccc(NC=O)c(O)c3)nc1-2 [Example 268, N-(4-{[6-Amino-3-(2-phenylethyl)-3H-purin-8-yl]thio}-2-hydroxyphenyl)formamide]",7.0
3,"Nc1ncn(CCn2cnc3ccccc3c2=O)c2nc(Sc3cc4c(cc3Br)OCO4)nc1-2 [Example 270, 3-(2-{6-Amino-8-[(6-bromo-1,3-benzodioxol-5-yl)thio]-3H-purin-3-yl}ethyl)quinazolin-4(3 H)-one]",7.0
4,"COc1ccc(OC)c(Sc2nc3c(N)ncn(CCn4cnc5ccccc5c4=O)c-3n2)c1 [Example 272, 3-(2-{6-Amino-8-[(2,5-dimethoxyphenyl)thio]-3H-purin-3-yl}ethyl)quinazolin-4(3 H)-one]",16
5,"CC(C)(C)NS(=O)(=O)c1ccc(CCn2cnc(N)c3nc(Sc4cc5c(cc4Br)OCO5)nc2-3)cc1 [Example 274, 4-(2-{6-Amino-8-[(6-bromo-1,3-benzodioxol-5-yl)thio]-3H-purin-3-yl}ethyl) N-(tert-butyl)benzenesulfonamide]",0.0
6,"CCCCNC(=O)Nc1ccc(CCn2cnc(N)c3nc(Sc4cc(OC)ccc4OC)nc2-3)cc1 [Example 278, N-[4-(2-{6-Amino-8-[(2,5-dimethoxyphenyl)thio]-3H-purin-3-yl}ethyl)phenyl]-N′-butylurea]",1.0
7,"Nc1ncn(CCc2ccccc2)c2nc(Sc3ccc4ncoc4c3)nc1-2 [Example 284, 8-(1,3-Benzoxazol-6-ylthio)-3-(2-phenylethyl)-3H-purin-6-amine]",3.0

# Other lines, results leading:
row,% Inhibition at 5 μM Compound Concentration [%],SMILES
1,0.0,"COc1ccc(OC)c(Sc2nc3c(N)ncn(CCc4ccc(S(=O)(=O)NC(C)(C)C)cc4)c-3n2)c1 [Example 276, 4-(2-{6-Amino-8-[(2,5-dimethoxyphenyl)thio]-3H-purin-3-yl}ethyl)-N-(tert-butyl)benzenesulfonamide]"
2,0.0,"COc1ccc(OC)c(Sc2nc3c(N)ncn(CC4(c5ccc(Cl)cc5)CC4)c-3n2)c1 [Example 280, 3-{[1-(4-Chlorophenyl)cyclopropyl]methyl}-8-[(2,5-dimethoxyphenyl)thio]-3H-purin-6-amine]"

# Same assay, conditions: BODIPY-GM 10 nM, Hsp90 30 nM
row,SMILES,IC50 [nM]
1,"COc1ccc(CCn2c(Sc3cc(OC)ccc3OC)nc3c(N)ncnc32)cc1 [Example 247, 8-[(2,5-Dimethoxyphenyl)thio]-9-[2-(4-methoxyphenyl)ethyl]-9H-purin-6-amine]",3000
2,"COc1ccc(OC)c(Sc2nc3c(N)ncnc3n2CCc2ccc(Cl)cc2)c1 [Example 248, 9-[2-(4-Chlorophenyl)ethyl]-8-[(2,5-dimethoxyphenyl)thio]-9H-purin-6-amine]",> 5000
3,"Nc1ncnc2c1nc(Sc1cc3c(cc1Br)OCO3)n2CCc1ccc(F)cc1 [Example 249, 8-[(6-Bromo-1,3-benzodioxol-5-yl)thio]-9-[2-(4-fluorophenyl)ethyl]-9H-purin-6-amine]",100
4,"COc1ccc(OC)c(Sc2nc3c(N)ncnc3n2CCc2c(Cl)cccc2Cl)c1 [Example 251, 9-[2-(2,6-Dichlorophenyl)ethyl]-8-[(2,5-dimethoxyphenyl)thio]-9H-purin-6-amine]",75
5,"Nc1ncnc2c1nc(Sc1cccc(OC(F)F)c1)n2CCc1ccccc1 [Example 252, 8-{[3-(Difluoromethoxy)phenyl]thio}-9-(2-phenylethyl)-9H-purin-6-amine]",> 25000
6,"Nc1ncnc2c1nc(Sc1cccc(OC(F)F)c1)n2CCc1c(Cl)cccc1Cl [Example 253, 9-[2-(2,6-Dichlorophenyl)ethyl]-8-{[3-(difluoromethoxy)phenyl]thio}-9H-purin-6-amine]",> 8000
7,"COc1cc(Sc2nc3c(N)ncnc3n2CCc2c(F)cccc2Cl)c(OC)cc1Cl [Example 256, 8-[(4-Chloro-2,5-dimethoxyphenyl)thio]-9-[2-(2-chloro-6-fluorophenyl)ethyl]-9H-purin-6-amine]",470
8,"COc1cc(Sc2nc3c(N)ncnc3n2CCc2ccccc2)c(OC)cc1Cl [Example 257, 8-[(4-Chloro-2,5-dimethoxyphenyl)thio]-9-(2-phenylethyl)-9H-purin-6-amine]",> 25000
9,"Nc1ncnc2c1nc(Sc1cccc(OC(F)F)c1)n2CCc1ccccc1Cl [Example 258, 9-[2-(2-Chlorophenyl)ethyl]-8-{[3-(difluoromethoxy)phenyl]thio}-9H-purin-6-amine]",> 25000
10,"Nc1ncnc2c1nc(Sc1cc(Cl)c(Cl)cc1Cl)n2CCc1ccccc1Cl [Example 262, 9-[2-(2-Chlorophenyl)ethyl]-8-[(2,4,5-trichlorophenyl)thio]-9H-purin-6-amine]",> 25000
11,"COc1ccc(OC)c(Sc2nc3c(N)ncnc3n2Cc2ccc(F)cc2)c1 [Example 266, 8-[(2,5-Dimethoxyphenyl)thio]-9-(4-fluorobenzyl)-9H-purin-6-amine]",12000
12,"Nc1ncnc2c1nc(Sc1ccc(NC=O)c(O)c1)n2CCc1ccccc1 [Example 267, N-(4-{[6-Amino-9-(2-phenylethyl)-9H-purin-8-yl]thio}-2-hydroxyphenyl)formamide]",> 25000
13,"CC(C)(C)NS(=O)(=O)c1ccc(CCn2c(Sc3cc4c(cc3Br)OCO4)nc3c(N)ncnc32)cc1 [Example 273, 4-(2-{6-Amino-8-[(6-bromo-1,3-benzodioxol-5-yl)thio]-9H-purin-9-yl}ethyl)-N-(tert-butyl)benzenesulfonamide]",1300
14,"COc1ccc(OC)c(Sc2nc3c(N)ncnc3n2CCc2ccc(S(=O)(=O)NC(C)(C)C)cc2)c1 [Example 275, 4-(2-{6-Amino-8-[(2,5-dimethoxyphenyl)thio]-9H-purin-9-yl}ethyl)-N-(tert-butyl)benzenesulfonamide]",> 3000
15,"CCCCNC(=O)Nc1ccc(CCn2c(Sc3cc(OC)ccc3OC)nc3c(N)ncnc32)cc1 [Example 277, N-[4-(2-{6-Amino-8-[(2,5-dimethoxyphenyl)thio]-9H-purin-9-yl}ethyl)phenyl]-N′-butylurea]",> 8000
16,"COc1ccc(OC)c(Sc2nc3c(N)ncnc3n2CC2(c3ccc(Cl)cc3)CC2)c1 [Example 279, 9-{[1-(4-Chlorophenyl)cyclopropyl]methyl}-8-[(2,5-dimethoxyphenyl)thio]-9H-purin-6-amine]",> 25000
17,"Nc1ccccc1CCn1c(Sc2cc3c(cc2Br)OCO3)nc2c(N)ncnc21 [Example 282, 9-[2-(2-Aminophenyl)ethyl]-8-[(6-bromo-1,3-benzodioxol-5-yl)thio]-9H-purin-6-amine]",55
18,"Nc1ncnc2c1nc(Sc1ccc3ncoc3c1)n2CCc1ccccc1 [Example 283, 8-(1,3-Benzoxazol-6-ylthio)-9-(2-phenylethyl)-9H-purin-6-amine]",12000
19,"CCC(Cn1c(Sc2cc(OC)ccc2OC)nc2c(N)ncnc21)c1ccccc1 (stereo not drawn) [Example 285, 8-[(2,5-Dimethoxyphenyl)thio]-9-(2-phenylbutyl)-9H-purin-6-amine]",1300

# Results, then the molecule that gave them:
row,IC50 [nM],SMILES
1,900,"COc1ccc(CCn2c(Sc3cc4c(cc3Br)OCO4)nc3c(N)ncnc32)cc1 [Example 250, 8-[(6-Bromo-1,3-benzodioxol-5-yl)thio]-9-[2-(4-methoxyphenyl)ethyl]-9H-purin-6-amine]"
2,> 8000,"Nc1ncnc2c1nc(Sc1cccc(OC(F)F)c1)n2CCc1c(F)cccc1Cl [Example 254, 9-[2-(2-Chloro-6-fluorophenyl)ethyl]-8-{[3-(difluoromethoxy)phenyl]thio}-9H-purin-6-amine]"
3,250,"COc1cc(Sc2nc3c(N)ncnc3n2CCc2c(Cl)cccc2Cl)c(OC)cc1Cl [Example 255, 8-[(4-Chloro-2,5-dimethoxyphenyl)thio]-9-[2-(2,6-dichlorophenyl)ethyl]-9H-purin-6-amine]"
4,12000,"Nc1ncnc2c1nc(Sc1cc(Cl)c(Cl)cc1Cl)n2CCc1ccccc1 [Example 259, 9-(2-Phenylethyl)-8-[(2,4,5-trichlorophenyl)thio]-9H-purin-6-amine]"
5,1500,"COc1cc(Sc2nc3c(N)ncnc3n2CCc2ccccc2Cl)c(OC)cc1Cl [Example 260, 8-[(4-Chloro-2,5-dimethoxyphenyl)thio]-9-[2-(2-chlorophenyl)ethyl]-9H-purin-6-amine]"
6,> 25000,"COc1cc(I)c(Sc2nc3c(N)ncnc3n2CCc2ccccc2Cl)cc1OC [Example 261, 9-[2-(2-Chlorophenyl)ethyl]-8-[(2-iodo-4,5-dimethoxyphenyl)thio]-9H-purin-6-amine]"
7,5500,"Nc1ncnc2c1nc(Sc1cc3c(cc1Br)OCO3)n2CCn1cnc2ccccc2c1=O [Example 269, 3-(2-{6-Amino-8-[(6-bromo-1,3-benzodioxol-5-yl)thio]-9H-purin-9-yl}ethyl)quinazolin-4(3 H)-one]"
8,> 25000,"COc1ccc(OC)c(Sc2nc3c(N)ncnc3n2CCn2cnc3ccccc3c2=O)c1 [Example 271, 3-(2-{6-Amino-8-[(2,5-dimethoxyphenyl)thio]-9H-purin-9-yl}ethyl)quinazolin-4(3 H)-one]"
9,120,"CCCCNC(=O)Nc1ccc(CCn2c(Sc3cc4c(cc3Br)OCO4)nc3c(N)ncnc32)cc1 [Example 281, N-[4-(2-{6-Amino-8-[(6-bromo-1,3-benzodioxol-5-yl)thio]-9H-purin-9-yl}ethyl)phenyl]-N′-butylurea]"
10,3000,"COc1cc(Sc2nc3c(N)ncnc3n2CCc2ccccc2)c(Cl)c(OC)c1OC [Example 286, 8-[(2-Chloro-3,4,5-trimethoxyphenyl)thio]-9-(2-phenylethyl)-9H-purin-6-amine]"
11,60,"COc1ccccc1CCn1c(Sc2cc3c(cc2Br)OCO3)nc2c(N)ncnc21 [Example 287, 8-[(6-Bromo-1,3-benzodioxol-5-yl)thio]-9-[2-(2-methoxyphenyl)ethyl]-9H-purin-6-amine]"
